Here are results for two molecules from patent publication US20230149507A1, “TREATMENT OF ALT CANCERS” (INSTITUTO DE MEDICINA MOLECULAR JOÃO LOBO ANTUNES, priority 2019, published 2023).

Holding throughout (type): cell-based, human
For assay [1], the system named is HeLa cells. Briefly: Western blot of pS33 (RPA32 phosphorylated at serine 33). The note with it: FANCM-depleted HeLa cells.
Experimental: HeLa cervical cancer, HT1080 fibrosarcoma, and HEK293 embryonic kidney cells were purchased from ATCC. […] HeLa, HT1080, HEK293, U2OS, and WI-38 VA13 cells were cultured in high glucose DMEM, GlutaMAX (Thermo Fisher Scientific) supplemented with 10% tetracycline-free fetal bovine serum (Pan BioTech) and 100 U/ml penicillin-streptomycin (Thermo Fisher Scientific). HuO9, Saos2, HOS and SKNAS cells were cultured in high glucose DMEM/F12, GlutaMAX (Thermo Fisher Scientific), supplemented with 10% tetracycline-free fetal bovine serum (Pan BioTech), 100 U/ml penicillin-streptomycin (Thermo Fisher Scientific) and non-essential amino acids (Thermo Fisher Scientific). Mycoplasma contaminations were tested using the VenorGeM Mycoplasma PCR Detection Kit (Minerva Biolabs) according to the manufacturer's instructions. When indicated, cells were incubated with 1 μM camptothecin (Sigma-Aldrich) for 3 hours, 0.2 mM hydroxyurea (Sigma-Aldrich) for 16 h, 20 μM BIBR 1532 (Merck Millipore) for 7 days, and 10 μM RO-3306 (Selleckchem) for 18 h. Cells were trypsinized and pelleted by centrifugation at 500 g at 4° C. for 5 min. […] Supernatant were recovered and protein concentrations were determined by Lowry assay using bovine serum albumin (BSA; Sigma-Aldrich) as standard. […]
The subject of assay [2] is HeLa cells. Kind of assay: FACS cell cycle analysis of FANCM-depleted HeLa cells with added agents. The note with it: FANCM-depleted HeLa cells; hydroxyurea followed by block release.
Experimental: When indicated, cells were incubated with 1 μM camptothecin (Sigma-Aldrich) for 3 hours, 0.2 mM hydroxyurea (Sigma-Aldrich) for 16 h, 20 μM BIBR 1532 (Merck Millipore) for 7 days, and 10 μM RO-3306 (Selleckchem) for 18 h. […] For fluorescence-activated cell sorting, cells were trypsinized and pelleted by centrifugation at 500 g at 4° C. for 5 min. Cell pellets were either left untreated for viability assays or fixed in 70% ethanol at −20° C. for 30 min and treated with 25 μg/ml RNaseA (Sigma-Aldrich) in 1×PBS at 37° C. for 20 min. Cells were then washed in 1×PBS and stained with 20 μg/ml propidium iodide (Sigma-Aldrich) in 1×PBS at 4° C. for 10 min. Flow cytometry was performed on a BD FACSCalibur or a BD Accuri C6 (BD Biosciences). Data were analyzed using FlowJo software.
For assay [3], the system named is U-2 OS, GM847, Saos-2 (ALT), HeLa and HCT116 (telomerase-positive) cells. Kind of assay: Clonogenic assay of cells treated with PIP-199. The protocol: (a) Quantitation of the surviving fraction of colonies from U-2 OS, GM847, Saos-2 (ALT), HeLa and HCT116 (telomerase-positive) cells treated with PIP-199 after 11 days. Colony counts were normalized to DMSO controls. Error bars represent mean±SEM from n=3 experiments, *p<0.05, n.s.=non-significant, Student's t-test.
Clonogenic assays were performed as described in Franken et al., 2006, with cells plated at 1,000 cells/10 cm dish with or without 200 nM 4-hydroxytamoxifen (Sigma Aldrich), which was replenished on days 4 and 7. For cells treated with PIP-199 (Aobious #AOB33732, CAS No: 622795-76-0), cells were plated at 300 cells/well in 6-well plates, and treated with 0-10 μM of drug in dimethyl sulfoxide (DMSO). Cells were left to grow for 11 days. Plates were washed with 1×PBS, then fixed and stained with 0.5% (w/v) crystal violet in 1 part acetic acid, 7 parts methanol for 2 h at room temperature. Plates were then washed with tap water and left to air dry. Colonies on each plate were counted and the plating efficiency and surviving fraction calculated.

Assay [4] has as its system U-2 OS, GM847 and Saos-2 ALT cell lines. Briefly: C-circle assay of cells treated with PIP-199. Particulars: 0.5 μM PIP-199 for 72 h vs DMSO. From the text:
(a) Schematic of MM2-tamoxifen (40HT)-inducible ER fusion protein-mediated inhibition of the FANCM-BTR complex interaction. […] (c) Tukey boxplots of TIFs in U-2 OS cells expressing MM2-ER or FF>AA-ER fusion proteins in the presence or absence of 40HT. Out of 3 experiments, n=150 cells scored per treatment, **p<0.005, Mann-Whitney test. (d) Representative dot blots and quantitation of C-circle assays in U-2 OS cells expressing MM2-ER or FF>AA-ER fusion proteins in the presence or absence of 40HT. C-circles were normalized to non-induced control. Error bars represent mean±SEM from n 3 experiments, *p<0.05, one-sample t-test. (e) Representative colony formation assay of GM847 and HCT116 cells expressing the MM2-ER fusion protein in the presence or absence of 40HT (top panel). Quantitation of the surviving fraction of colonies for ALT (U-2 OS, GM847 and Saos-2) and telomerase-positive (HeLa and HCT116) cell lines expressing MM2-ER or FF>AA-ER fusion proteins (bottom panel). Colony counts were normalized to non-induced controls. […] (f) Representative dot blots and quantitation of C-circle assays from U-2 OS, GM847, Saos-2, HeLa and HCT116 cells treated with 0.5 μM PIP-199 or vehicle control (DMSO) for 72 h. […] (g) Quantitation of the surviving fraction of colonies from U-2 OS, GM847, Saos-2, HeLa and HCT116 cells treated with PIP-199. […]

With `NC(=O)NO` [HU, hydroxyurea], the pS33 accumulation entry in the assay with HeLa cells [1] is “did not promote pS33 accumulation”. The cell cycle distribution entry with HeLa cells [2] is given as “did not show an altered cell cycle distribution”.

In the case of `CCOC(=O)N1CCN(C(c2ccccn2)c2c(-c3ccccc3)n(O)c3ccccc23)CC1` (centres unmarked) [PIP-199, 4-[(1-Hydroxy-2-phenyl-1H-indol-3-yl)-pyridin-2-yl-methyl]-piperazine-1-carboxylic acid ethyl ester], the “sensitivity in clonogenic assay (surviving fraction of colonies)” value in assay [3] (0-10 μM PIP-199, 11 days, ALT vs telomerase-positive cells) is “hypersensitivity of ALT cells”. In addition, in assay [3] (normalized to DMSO controls, datapoint exceeding the visible axis of FIG. 11g, cell line not stated), the “surviving fraction of colonies” value was found to be 1.42. Further, the C-circles entry in assay [4] is reported as “increase in C-circles”.
